# US7045516B1, “Benzoxazole derivatives and drugs containing the same as the active ingredient” (Koichi Shudo, priority 1998, dated 2006)
# Read-outs that look alike come from different tables or passages of the source.
# What was measured:
# [1] = test system: rat diarrhea under restriction stress; experiment: Inhibitory action for rat diarrhea under restriction stress; format: in vivo; conditions: oral, 30 min before restraint, male Wistar rats, 3 hours, nonlinear least square method
# Protocol: L. Williams et al. [GASTROENTEROLOGY, 94, 611–621 (1988)] was determined as follows, and the results were analyzed by the nonlinear least square method. 8-Week old male Wistar rats were starved from the evening of the day before the test. Each test compound was orally administered to the rats. After 30 minutes, the rats were constrained by binding of their fore-limbs and hind-limbs with wires. The rats were left in individual gages on white sheets under luminescent lamps for 3 hours. […] The test was performed with groups of rats each consisting of 8 rats.
# [2] = test system: large bowel transportation ability of normal mice; experiment: Effect on large bowel transportation ability of normal mice (glass bead excretion); format: in vivo, mouse; conditions: ddY male mice, bead inserted after 30 minutes
# Protocol: G. et al. [Drug Dev. Res., 9, 241-247, (1986)] was determined as follows. Each test compound was orally administered to 5- to 7-week old ddY male mice starved for about 4 hours. […] After the insertion of the glass bead, time (second) from the insertion to excretion of the bead from the anus was measured, and the time was used as an index of large bowel transportation ability. The test was performed by using groups of mice each consisting of 9 to 11 mice, and all of the procedures were performed under no anesthesia.
# Reverse mutation test = experiment: Reverse mutation test
# Protocol: A reverse mutagenicity test was performed using the compound of Example 1 (b) of the present specification, hydrochloride of 5,7-dimethyl-2-(1-piperazinyl)benzoxazole (C), hydrochloride of 5-chloro-7-methyl-2-(4-methyl-1-piperazinyl)benzoxazole (D), and hydrochloride of 5-chloro-7-methyl-2-(4-methyl-1-homopiperazinyl) benzoxazole (E) (compounds disclosed in Japanese Patent Publication (KOKAI) No. 10-29987/1998), and the compound described in Reference Example 4 of the present specification, i.e., hydrochloride of 5-chloro-7-methyl-2-(1-piperazinyl) benzoxazole (F) according to the method of T. Matsushima et al. (Noropoth K. H., Springer, Berlin-Heidelberg-New York, “Short-Term Test Systems For Detecting Carcinogens”, pp. 273–285, 1980) referred by the guideline 471 of ORGANIZATION FOR ECONOMIC CO-OPERATION AND DEVELOPMENT.
# [3] = Toxicity test, oral administration to mice; format: in vivo; conditions: 300 mg/kg, suspended in distilled water, 7-week old male mice
# Protocol: The compound of Example 1 (b) gave no death of the animal at a dose of 300 mg/kg.
# [4] = Metabolic activity in human liver, in vitro system with S9 fraction; format: in vitro ADME; conditions: 50 μmol/L test compound, 1 mg/mL human liver S9, NADPH production system, 37 °C, 15 minutes
# Protocol: The test was performed in an in vitro system utilizing human liver S9 fraction in the presence of an NADPH production system described below. A reaction mixture of a total volume of 125 μL containing components at given final concentrations was prepared (50 μmol/L of test compound, 6 mmol/L of MgCl2.6H2O, 1 mmol/L of β-NADP^+, 10 mmol/L of glucose-6-phosphate (G-6-P), 0.7 U/mL of G-6-P dehydrogenase, 100 mmol/L of potassium phosphate (pH 7.4), 0.1 mmol/L of EDTANa2, and 1 mg/mL of human liver S9), and incubated at 37 C.° for 15 minutes. The reaction was stopped by the addition of 125 μL of N,N-dimethylformamide containing a substance for internal standard. The reaction mixture was centrifuged (2,000×g, 10 minutes), and the supernatant was subjected to HPLC analysis to determine the concentration of unchanged substance. Consumed amount was calculated from the concentration of unchanged substance, and the metabolic rate was represented as activity per unit amount of protein.
SMILES,ED50 ([1]; Rattus norvegicus),time from insertion to excretion of glass bead ([2]; dose 3 mg/kg oral),time from insertion to excretion of glass bead ([2]; dose 10 mg/kg oral),time from insertion to excretion of glass bead ([2]; dose 30 mg/kg oral),reverse mutagenicity (Reverse mutation test),death of the animal [3],ED50 value [1],Metabolic activity [4],"reverse mutagenicity (Reverse mutation test; method of Matsushima et al., OECD guideline 471)"
"Cc1cc(Cl)cc2nc(N3CCCNCC3)oc12.Cl [Example 1 (b), 5-Chloro-2-(1-homopiperazinyl)-7-methylbenzoxazole hydrochloride]",0.25 µg/kg,218.39 s,313.60 s,239.11 s,negative,no death,,,
"Cc1cc(C)c2oc(N3CCNCC3)nc2c1.Cl [Hydrochloride of C, hydrochloride of 5,7-dimethyl-2-(1-piperazinyl)benzoxazole]",,234.01 s,251.00 s,357.08 s,,,27.2 µg/kg,0.06 nmol/min/mg protein,negative
